{
  "source": "patent US20170224662A1",
  "about": "(priority 2016, published 2017)",
  "experiment": "Binary excipient screening: stability of CPMM 1 mg/mL in IV-compatible excipient solutions in 10 mM pH 3 phosphate buffer",
  "type": "physicochemical",
  "conditions": "for CPMM % Purity: t = 0",
  "experimental": "CPMM was evaluated for compatibility with excipients that are suitable for IV administration. A buffer solution (phosphate at pH 3) was selected as the diluent for excipient screening studies. […] CPMM was solubilized in each excipient solution at 1 mg/mL.\nWhile CPMM completely dissolved in the control sample within several minutes, many of the excipient solutions required overnight storage at 5° C. to solubilize the drug.\nEach excipient sample solution was placed on a two-week stability study at 25° C./60% relative humidity and 40° C./75% relative humidity, and analyzed for CPMM purity at t=0, 1, and 2 weeks by comparing individual samples to their respective excipient blank solution.",
  "note": "Marks after values point to notes of the source that are not given here.",
  "data": [
    {"molecule": "COC(=O)C1(OC(=O)c2cncn2[C@H](C)c2ccccc2)CC1", "note": "[CPMM, 1-(methoxycarbonyl)cyclopropyl-1-[(1R)-1-phenylethyl]-1H-imidazole-5-carboxylate]", "values": [
      {"measurement": "Change in CPMM % Purity", "setting": "Lutrol F68 1% in pH 3 buffer, 2 weeks 25° C./60% RH", "value": "−2.5", "unit": "%"},
      {"measurement": "Change in CPMM % Purity", "setting": "Lutrol F68 1% in pH 3 buffer, 2 weeks 40° C./75% RH", "value": "−9.0", "unit": "%"},
      {"measurement": "CPMM % Purity", "setting": "Lutrol F68 1% in pH 3 buffer", "value": 99.5, "unit": "%"},
      {"measurement": "Change in CPMM % Purity", "setting": "Mannitol 5% in pH 3 buffer, 1 week 25° C./60% RH", "value": "−1.5", "unit": "%"},
      {"measurement": "Change in CPMM % Purity", "setting": "Mannitol 5% in pH 3 buffer, 1 week 40° C./75% RH", "value": "−5.2", "unit": "%"},
      {"measurement": "Change in CPMM % Purity", "setting": "Mannitol 5% in pH 3 buffer, 2 weeks 25° C./60% RH", "value": "−2.6", "unit": "%"},
      {"measurement": "Change in CPMM % Purity", "setting": "Mannitol 5% in pH 3 buffer, 2 weeks 40° C./75% RH", "value": "−9.1", "unit": "%"},
      {"measurement": "CPMM % Purity", "setting": "Mannitol 5% in pH 3 buffer", "value": 99.4, "unit": "%"},
      {"measurement": "Change in CPMM % Purity", "setting": "NaCl 5% in pH 3 buffer, 1 week 25° C./60% RH", "value": "−1.1", "unit": "%"},
      {"measurement": "Change in CPMM % Purity", "setting": "NaCl 5% in pH 3 buffer, 1 week 40° C./75% RH", "value": "−4.0", "unit": "%"},
      {"measurement": "Change in CPMM % Purity", "setting": "NaCl 5% in pH 3 buffer, 2 weeks 25° C./60% RH", "value": "−1.9", "unit": "%"},
      {"measurement": "Change in CPMM % Purity", "setting": "NaCl 5% in pH 3 buffer, 2 weeks 40° C./75% RH", "value": "−7.2", "unit": "%"},
      {"measurement": "CPMM % Purity", "setting": "NaCl 5% in pH 3 buffer", "value": 99.4, "unit": "%"},
      {"measurement": "Change in CPMM % Purity", "setting": "PEG 400 10% in pH 3 buffer, 1 week 25° C./60% RH", "value": "−1.2", "unit": "%"},
      {"measurement": "Change in CPMM % Purity", "setting": "PEG 400 10% in pH 3 buffer, 1 week 40° C./75% RH", "value": "−4.0", "unit": "%"},
      {"measurement": "Change in CPMM % Purity", "setting": "PEG 400 10% in pH 3 buffer, 2 weeks 25° C./60% RH", "value": "−2.0", "unit": "%"},
      {"measurement": "Change in CPMM % Purity", "setting": "PEG 400 10% in pH 3 buffer, 2 weeks 40° C./75% RH", "value": "−7.0", "unit": "%"},
      {"measurement": "CPMM % Purity", "setting": "PEG 400 10% in pH 3 buffer", "value": 99.5, "unit": "%"},
      {"measurement": "CPMM % Purity", "setting": "PVP K17 5% in pH 3 buffer, excipient peak co-elutes with several related substances, not accounted for", "value": 99.6, "unit": "%*"},
      {"measurement": "Change in CPMM % Purity", "setting": "Polysorbate 20 1% in pH 3 buffer, 1 week 25° C./60% RH", "value": "−1.4", "unit": "%"},
      {"measurement": "Change in CPMM % Purity", "setting": "Polysorbate 20 1% in pH 3 buffer, 1 week 40° C./75% RH", "value": "−4.6", "unit": "%"},
      {"measurement": "Change in CPMM % Purity", "setting": "Polysorbate 20 1% in pH 3 buffer, 2 weeks 25° C./60% RH", "value": "−2.1", "unit": "%"},
      {"measurement": "Change in CPMM % Purity", "setting": "Polysorbate 20 1% in pH 3 buffer, 2 weeks 40° C./75% RH", "value": "−8.1", "unit": "%"},
      {"measurement": "CPMM % Purity", "setting": "Polysorbate 20 1% in pH 3 buffer", "value": 99.4, "unit": "%"},
      {"measurement": "Change in CPMM % Purity", "setting": "Polysorbate 80 1% in pH 3 buffer, 1 week 25° C./60% RH, may be due to excipient impurities", "value": "−4.2", "unit": "%^†"},
      {"measurement": "Change in CPMM % Purity", "setting": "Polysorbate 80 1% in pH 3 buffer, 1 week 40° C./75% RH, may be due to excipient impurities", "value": "−8.3", "unit": "%^†"},
      {"measurement": "Change in CPMM % Purity", "setting": "Polysorbate 80 1% in pH 3 buffer, 2 weeks 25° C./60% RH, may be due to excipient impurities", "value": "−5.2", "unit": "%^†"},
      {"measurement": "Change in CPMM % Purity", "setting": "Polysorbate 80 1% in pH 3 buffer, 2 weeks 40° C./75% RH, may be due to excipient impurities", "value": "−15.0", "unit": "%^†"},
      {"measurement": "CPMM % Purity", "setting": "Polysorbate 80 1% in pH 3 buffer", "value": 99.4, "unit": "%"},
      {"measurement": "Change in CPMM % Purity", "setting": "Propylene Glycol 10% in pH 3 buffer, 1 week 25° C./60% RH", "value": "−1.2", "unit": "%"},
      {"measurement": "Change in CPMM % Purity", "setting": "Propylene Glycol 10% in pH 3 buffer, 1 week 40° C./75% RH", "value": "−4.0", "unit": "%"},
      {"measurement": "Change in CPMM % Purity", "setting": "Propylene Glycol 10% in pH 3 buffer, 2 weeks 25° C./60% RH", "value": "−1.9", "unit": "%"},
      {"measurement": "Change in CPMM % Purity", "setting": "Propylene Glycol 10% in pH 3 buffer, 2 weeks 40° C./75% RH", "value": "−6.9", "unit": "%"},
      {"measurement": "CPMM % Purity", "setting": "Propylene Glycol 10% in pH 3 buffer", "value": 99.4, "unit": "%"},
      {"measurement": "Change in CPMM % Purity", "setting": "SBECD 10% in pH 3 buffer, 1 week 25° C./60% RH", "value": "−0.4", "unit": "%"},
      {"measurement": "Change in CPMM % Purity", "setting": "SBECD 10% in pH 3 buffer, 1 week 40° C./75% RH", "value": "−1.3", "unit": "%"},
      {"measurement": "Change in CPMM % Purity", "setting": "SBECD 10% in pH 3 buffer, 2 weeks 25° C./60% RH", "value": "−0.4", "unit": "%"},
      {"measurement": "Change in CPMM % Purity", "setting": "SBECD 10% in pH 3 buffer, 2 weeks 40° C./75% RH", "value": "−2.1", "unit": "%"},
      {"measurement": "CPMM % Purity", "setting": "SBECD 10% in pH 3 buffer", "value": 99.4, "unit": "%"},
      {"measurement": "Change in CPMM % Purity", "setting": "Sodium Bisulfite 0.5% in pH 3 buffer, 1 week 25° C./60% RH", "value": "−1.9", "unit": "%"},
      {"measurement": "Change in CPMM % Purity", "setting": "Sodium Bisulfite 0.5% in pH 3 buffer, 1 week 40° C./75% RH", "value": "−7.2", "unit": "%"},
      {"measurement": "Change in CPMM % Purity", "setting": "Sodium Bisulfite 0.5% in pH 3 buffer, 2 weeks 25° C./60% RH", "value": "−3.2", "unit": "%"},
      {"measurement": "Change in CPMM % Purity", "setting": "Sodium Bisulfite 0.5% in pH 3 buffer, 2 weeks 40° C./75% RH", "value": "−12.2", "unit": "%"},
      {"measurement": "CPMM % Purity", "setting": "Sodium Bisulfite 0.5% in pH 3 buffer", "value": 99.4, "unit": "%"},
      {"measurement": "Change in CPMM % Purity", "setting": "Solutol HS15 1% in pH 3 buffer, 1 week 25° C./60% RH", "value": "−1.3", "unit": "%"},
      {"measurement": "Change in CPMM % Purity", "setting": "Solutol HS15 1% in pH 3 buffer, 1 week 40° C./75% RH", "value": "−4.2", "unit": "%"},
      {"measurement": "Change in CPMM % Purity", "setting": "Solutol HS15 1% in pH 3 buffer, 2 weeks 25° C./60% RH", "value": "−2.1", "unit": "%"},
      {"measurement": "Change in CPMM % Purity", "setting": "Solutol HS15 1% in pH 3 buffer, 2 weeks 40° C./75% RH", "value": "−7.3", "unit": "%"},
      {"measurement": "CPMM % Purity", "setting": "Solutol HS15 1% in pH 3 buffer", "value": 99.4, "unit": "%"},
      {"measurement": "Change in CPMM % Purity", "setting": "Sorbitol 5% in pH 3 buffer, 1 week 25° C./60% RH", "value": "−1.3", "unit": "%"},
      {"measurement": "Change in CPMM % Purity", "setting": "Sorbitol 5% in pH 3 buffer, 1 week 40° C./75% RH", "value": "−4.5", "unit": "%"},
      {"measurement": "Change in CPMM % Purity", "setting": "Sorbitol 5% in pH 3 buffer, 2 weeks 25° C./60% RH", "value": "−2.3", "unit": "%"},
      {"measurement": "Change in CPMM % Purity", "setting": "Sorbitol 5% in pH 3 buffer, 2 weeks 40° C./75% RH", "value": "−8.3", "unit": "%"},
      {"measurement": "CPMM % Purity", "setting": "Sorbitol 5% in pH 3 buffer", "value": 99.5, "unit": "%"},
      {"measurement": "Change in CPMM % Purity", "setting": "Sucrose 5% in pH 3 buffer, 1 week 25° C./60% RH", "value": "−1.5", "unit": "%"},
      {"measurement": "Change in CPMM % Purity", "setting": "Sucrose 5% in pH 3 buffer, 1 week 40° C./75% RH", "value": "−5.2", "unit": "%"},
      {"measurement": "Change in CPMM % Purity", "setting": "Sucrose 5% in pH 3 buffer, 2 weeks 25° C./60% RH", "value": "−2.5", "unit": "%"},
      {"measurement": "Change in CPMM % Purity", "setting": "Sucrose 5% in pH 3 buffer, 2 weeks 40° C./75% RH", "value": "−9.0", "unit": "%"},
      {"measurement": "CPMM % Purity", "setting": "Sucrose 5% in pH 3 buffer", "value": 99.4, "unit": "%"},
      {"measurement": "Change in CPMM % Purity", "setting": "Trehalose 5% in pH 3 buffer, 1 week 25° C./60% RH", "value": "−1.3", "unit": "%"},
      {"measurement": "Change in CPMM % Purity", "setting": "Trehalose 5% in pH 3 buffer, 1 week 40° C./75% RH", "value": "−4.6", "unit": "%"},
      {"measurement": "Change in CPMM % Purity", "setting": "Trehalose 5% in pH 3 buffer, 2 weeks 25° C./60% RH", "value": "−2.3", "unit": "%"},
      {"measurement": "Change in CPMM % Purity", "setting": "Trehalose 5% in pH 3 buffer, 2 weeks 40° C./75% RH", "value": "−8.4", "unit": "%"},
      {"measurement": "CPMM % Purity", "setting": "Trehalose 5% in pH 3 buffer", "value": 99.4, "unit": "%"}
    ]}
  ]
}
